Measured values as given in patent publication US20120237941A1, “METHOD FOR SCREENING ACTIVE AGENTS THAT STIMULATE THE EXPRESSION OF ARNT2 TO IMPROVE THE SKIN'S BARRIER FUNCTION” (CHANEL PARFUMS BEAUTE, priority 2009, published 2012).

Test system: ARNT2 mRNA
Experiment: Stimulation of the expression of ARNT2 mRNA in normal human keratinocytes (real-time RT-PCR)
Type: cell-based
Details: 0.001% active agent (w/w), 24 hours, fold vs untreated control (1.00), housekeeping gene RPLPO
Procedure: Keratinocytes derived from neonatal foreskins (Invitrogen, CA, USA) were cultured in 6-well plates in keratinocyte culture medium with supplement (EpiLife, Invitrogen). After culturing for 24 hours at 37° C., the 70% confluent cells were washed with PBS buffer (Invitrogen, CA) and incubated with basic keratinocytes culture medium (EpiLife, Invitrogen) containing the active agent to be tested, for 24 hours, at increasing concentrations. The cytotoxicity of the active agent was evaluated in human cultured keratinocytes before testing the activity.
Keratinocytes were treated with various concentrations of active agent in triplicates for 24 hours. The mRNA was isolated using the Qiagen RNeasy kit (Qiagen, CA) and quantified using the QuantIt kit (Invitrogen, CA).
The PCR primers were obtained from Applied Biosystems (Applied Biosystems, CA). The housekeeping gene used was RPLPO.
To quantify the expression of messenger RNA of ARNT2 in a treated sample relative to an untreated sample, real-time polymerase chain amplification (RT-PCR) was performed. […]
The relative quantification of the expression of the target gene was performed using the Pfaffl mathematical model (Pfaffl, M W, Nucleic Acids Res. 29(9), p. E45, 2001). […]
The effect of this botanical extract on the expression of the ARNT2 mRNA was evaluated on cultured keratinocytes. […]

In the case of `CC(=O)Oc1cc(C=Cc2ccc(OC(=O)CCCCC3CCSS3)cc2)cc(OC(C)=O)c1` (stereo not shown) [Active agent tested, resveratrol 3,5-diacetate-4′-lipoate], the “Stimulation of ARNT2 mRNA” value is reported as 1.81.
